Source: PubChem BioAssay AID248 (DTP/NCI, 2004)
Several values for one entry are separate records, joined by “and”; a condition that tells them apart may be missing. Equal entries are not always repeated. Inconclusive results and toxic doses are left out. Rule as the data show it: active = T/C of 150% or more; inactive = T/C below 125%. Square brackets hold non-standard residues; d marks the D form. Peptide text beside a SMILES is read from it. ξ: configuration not given here. ξF = NC(Cc1ccccc1)C(=O)O

Tested on: L1210 leukemia ip in BDF1 mice, survival T/C
Test: NCI In Vivo Anticancer Drug Screen. Data for tumor model L1210 Leukemia (intraperitoneal) in B6D2F1 (BDF1) mice
Details: endpoint: mean survival time, higher = longer survival
How it was run: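 Tumor cells were implanted, animals were treated, and survival was followed. The result divides the treated measurement by the vehicle-control measurement.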

[1] = dose: 100.0 mg/kg/injection, schedule: Q01DX009 (ip), vehicle: Klucel (hydroxypropylcellulose) (HPC)
[2] = dose: 100.0 mg/kg/injection, schedule: Q04DX003 (ip), vehicle: Klucel (hydroxypropylcellulose) (HPC)
[3] = dose: 200.0 mg/kg/injection, schedule: Q01DX009 (ip), vehicle: Klucel (hydroxypropylcellulose) (HPC)
[4] = dose: 200.0 mg/kg/injection, schedule: Q04DX003 (ip), vehicle: Klucel (hydroxypropylcellulose) (HPC)
[5] = dose: 400.0 mg/kg/injection, schedule: Q01DX009 (ip), vehicle: Klucel (hydroxypropylcellulose) (HPC)
[6] = dose: 400.0 mg/kg/injection, schedule: Q04DX003 (ip), vehicle: Klucel (hydroxypropylcellulose) (HPC)
[7] = dose: 50.0 mg/kg/injection, schedule: Q01DX001 (ip), vehicle: saline
[8] = dose: 100.0 mg/kg/injection, schedule: Q01DX001 (ip), vehicle: saline
[9] = dose: 200.0 mg/kg/injection, schedule: Q01DX001 (ip), vehicle: saline
[10] = dose: 400.0 mg/kg/injection, schedule: Q01DX001 (ip), vehicle: saline
[11] = dose: 100.0 mg/kg/injection, schedule: Q01DX001 (ip), vehicle: carboxymethylcellulose (CMC)
[12] = dose: 200.0 mg/kg/injection, schedule: Q01DX001 (ip), vehicle: carboxymethylcellulose (CMC)
[13] = dose: 400.0 mg/kg/injection, schedule: Q01DX001 (ip), vehicle: carboxymethylcellulose (CMC)
[14] = dose: 100.0 mg/kg/injection, schedule: Q01DX001 (ip), vehicle: saline with Tween-80
[15] = dose: 200.0 mg/kg/injection, schedule: Q01DX001 (ip), vehicle: saline with Tween-80
[16] = dose: 400.0 mg/kg/injection, schedule: Q01DX001 (ip), vehicle: saline with Tween-80
[17] = dose: 100.0 mg/kg/injection, schedule: Q04DX003 (ip), vehicle: saline with Tween-80
[18] = dose: 200.0 mg/kg/injection, schedule: Q04DX003 (ip), vehicle: saline with Tween-80
[19] = dose: 400.0 mg/kg/injection, schedule: Q04DX003 (ip), vehicle: saline with Tween-80
[20] = dose: 200.0 mg/kg/injection, schedule: Q04DX002 (ip), vehicle: saline
[21] = dose: 100.0 mg/kg/injection, schedule: Q04DX002 (ip), vehicle: Klucel (hydroxypropylcellulose) (HPC)
[22] = dose: 200.0 mg/kg/injection, schedule: Q04DX002 (ip), vehicle: Klucel (hydroxypropylcellulose) (HPC)
[23] = dose: 400.0 mg/kg/injection, schedule: Q04DX002 (ip), vehicle: Klucel (hydroxypropylcellulose) (HPC)

Measured: T/C

O=C1CC(c2ccc(O)cc2)CC(=O)C1C(C1CC=CCC1)N(CCCl)CCCl (configuration not stated)
inactive: [1] 105 % of control and 104 % of control | [2] 103 % of control | [3] 105 % of control and 100 % of control | [4] 106 % of control and 104 % of control | [5] 110 % of control and 100 % of control | [6] 110 % of control and 101 % of control

NCC(=O)NC(Cc1ccccc1)C(=O)O (configuration not stated) (H-Gly-[ξF]-OH)
inactive: [7] 110 % of control | [8] 96 % of control | [9] 112 % of control | [10] 107 % of control

CN=C(NN)NCCO
inactive: dose: 175.0 mg/kg/injection, schedule: Q01DX001 (ip), vehicle: saline 96 % of control | dose: 265.0 mg/kg/injection, schedule: Q01DX001 (ip), vehicle: saline 96 % of control | [10] 110 % of control | dose: 600.0 mg/kg/injection, schedule: Q01DX001 (ip), vehicle: saline 98 % of control

O=C1NC2(CCCCC2)C(=O)N1CCN(CCCl)CCCl
inactive: dose: 1.3 mg/kg/injection, schedule: Q01DX009 (ip), vehicle: saline 96 % of control | dose: 2.0 mg/kg/injection, schedule: Q01DX009 (ip), vehicle: saline 107 % of control | dose: 4.1 mg/kg/injection, schedule: Q01DX009 (ip), vehicle: saline 117 % of control | dose: 6.25 mg/kg/injection, schedule: Q01DX009 (ip), vehicle: saline 119 % of control | dose: 9.3 mg/kg/injection, schedule: Q01DX009 (ip), vehicle: saline 124 % of control | dose: 16.0 mg/kg/injection, schedule: Q04DX003 (ip), vehicle: saline 122 % of control | dose: 25.0 mg/kg/injection, schedule: Q01DX009 (ip), vehicle: saline 106 % of control

CCC1(CC)CC1(Cl)Cl
inactive: dose: 75.0 mg/kg/injection, schedule: Q01DX001 (ip), vehicle: acetone 108 % of control | dose: 150.0 mg/kg/injection, schedule: Q01DX001 (ip), vehicle: acetone 101 % of control

Nc1cc2c3c(cccc3c1)C(=O)N(Cc1ccccc1)C2=O
inactive: dose: 75.0 mg/kg/injection, schedule: Q01DX009 (ip), vehicle: Klucel (hydroxypropylcellulose) (HPC) 89 % of control | dose: 150.0 mg/kg/injection, schedule: Q01DX009 (ip), vehicle: Klucel (hydroxypropylcellulose) (HPC) 92 % of control | dose: 300.0 mg/kg/injection, schedule: Q01DX009 (ip), vehicle: Klucel (hydroxypropylcellulose) (HPC) 97 % of control

c1cc[n+]2c(c1)-c1cccc[n+]1CCC2
inactive: [11] 94 % of control | [12] 101 % of control | [13] 92 % of control

O=C(O)c1ccsc1C(=O)c1ccccc1
inactive: [14] 105 % of control | [15] 102 % of control | [16] 97 % of control

CNC(=O)C1C2C=CC(CC2)C1C(=O)NC (configuration not stated)
inactive: [17] 108 % of control | [18] 100 % of control | [19] 100 % of control

CCCCCCCCCCCCC(=O)N1CCCCC1
inactive: dose: 100.0 mg/kg/injection, schedule: Q04DX002 (ip), vehicle: saline 91 % of control | [20] 102 % of control

CCCCOC(=O)c1ccc(NC(=S)NC(=O)COc2ccccc2)cc1
inactive: [21] 118 % of control | [22] 101 % of control | [23] 97 % of control

O=C(NCc1ccco1)Nc1ccc(Cl)cc1
inactive: [14] 101 % of control | [15] 96 % of control | [16] 108 % of control

CCCCNc1cc(Nc2ccc(Br)cc2)nc(N)n1
inactive: [8] 102 % of control | [9] 98 % of control

C=C(C(=O)OC)C(C(=O)OC)=C(N1CCCCC1)N1CCCCC1
inactive: dose: 100.0 mg/kg/injection, schedule: Q04DX002 (ip), vehicle: saline with Tween-80 95 % of control | dose: 200.0 mg/kg/injection, schedule: Q04DX002 (ip), vehicle: saline with Tween-80 95 % of control

Cc1cc(C)nc(NS(=O)(=O)c2ccc(NC(=O)Nc3ccc(F)cc3F)cc2)n1
inactive: dose: 50.0 mg/kg/injection, schedule: Q01DX009 (ip), vehicle: saline with Tween-80 96 % of control | dose: 100.0 mg/kg/injection, schedule: Q01DX009 (ip), vehicle: saline with Tween-80 93 % of control | dose: 200.0 mg/kg/injection, schedule: Q01DX009 (ip), vehicle: saline with Tween-80 101 % of control

O=C(NC(=O)C(Cl)Cl)Nc1ccc2c(c1)Cc1ccccc1-2
inactive: dose: 100.0 mg/kg/injection, schedule: Q01DX001 (ip), vehicle: Klucel (hydroxypropylcellulose) (HPC) 95 % of control | [1] 100 % of control | [2] 102 % of control | dose: 200.0 mg/kg/injection, schedule: Q01DX001 (ip), vehicle: Klucel (hydroxypropylcellulose) (HPC) 100 % of control | [3] 98 % of control | [4] 96 % of control | dose: 400.0 mg/kg/injection, schedule: Q01DX001 (ip), vehicle: Klucel (hydroxypropylcellulose) (HPC) 100 % of control | [5] 104 % of control | [6] 96 % of control

CCOC(=O)/C(C)=N\N=C(/CCOC)COC
inactive: [7] 101 % of control | dose: 50.0 mg/kg/injection, schedule: Q01DX009 (ip), vehicle: carboxymethylcellulose (CMC) 117 % of control | [8] 101 % of control | [9] 101 % of control | [10] 95 % of control | dose: 400.0 mg/kg/injection, schedule: Q01DX009 (ip), vehicle: carboxymethylcellulose (CMC) 94 % of control

C=CCNC(=O)C1C2C=CC(C2)C1C(=O)NCC=C (configuration not stated)
inactive: [17] 103 % of control | [18] 103 % of control

S=c1nc[nH]c2ncccc12
inactive: [2] 104 % of control | [4] 100 % of control | [6] 97 % of control

Cc1cc(C)c(C2CC3CCC2C3)cc1N (configuration not stated)
inactive: dose: 25.0 mg/kg/injection, schedule: Q04DX002 (ip), vehicle: Klucel (hydroxypropylcellulose) (HPC) 100 % of control | dose: 50.0 mg/kg/injection, schedule: Q04DX002 (ip), vehicle: Klucel (hydroxypropylcellulose) (HPC) 100 % of control | [21] 100 % of control | [2] 90 % of control | [20] 96 % of control

Cc1ccc(C)c(NCC(=O)NN)c1
inactive: [21] 103 % of control | [22] 100 % of control | [23] 100 % of control

CCCCCCCCNCCOC(=O)c1ccc(N(CC)CC)cc1
inactive: dose: 75.0 mg/kg/injection, schedule: Q01DX001 (ip), vehicle: carboxymethylcellulose (CMC) 91 % of control | dose: 150.0 mg/kg/injection, schedule: Q01DX001 (ip), vehicle: carboxymethylcellulose (CMC) 97 % of control

Cc1ccc(S(=O)(=O)OCCCCl)cc1
inactive: [11] 112 % of control | [12] 106 % of control | [13] 101 % of control

O=[N+]([O-])c1ccc(/C=C/C2OCCO2)cc1
inactive: [7] 98 % of control | [8] 96 % of control | [9] 101 % of control

Cc1ccccc1S(=O)(=O)Cc1cc(Cl)cc(Cl)c1O
inactive: [8] 90 % of control | [9] 88 % of control | [10] 97 % of control

CCC(=O)/C(=C\c1ccccc1Cl)C(C)=O
inactive: [17] 111 % of control | [18] 117 % of control | [19] 93 % of control
